Biological target: T1, HoBGLA (Halothermothrix orenii, UniProt B8CYA8)
T1 construct: gene Hore_15280; full length, 451 residues, GH1; pNIC28-Bsa4 N-terminal His6-TEV tag cut off with TEV protease; expressed in E. coli BL21(DE3); 53 kDa
Test: X-ray crystal structure, […] Å, crystal soaked with cellobionolactam
Format: binding
Conditions: pH 5.5; subsite −1, non-covalent, glucose left after cleavage of cellobionolactam

T1 sequence (B8CYA8 entry or part of it): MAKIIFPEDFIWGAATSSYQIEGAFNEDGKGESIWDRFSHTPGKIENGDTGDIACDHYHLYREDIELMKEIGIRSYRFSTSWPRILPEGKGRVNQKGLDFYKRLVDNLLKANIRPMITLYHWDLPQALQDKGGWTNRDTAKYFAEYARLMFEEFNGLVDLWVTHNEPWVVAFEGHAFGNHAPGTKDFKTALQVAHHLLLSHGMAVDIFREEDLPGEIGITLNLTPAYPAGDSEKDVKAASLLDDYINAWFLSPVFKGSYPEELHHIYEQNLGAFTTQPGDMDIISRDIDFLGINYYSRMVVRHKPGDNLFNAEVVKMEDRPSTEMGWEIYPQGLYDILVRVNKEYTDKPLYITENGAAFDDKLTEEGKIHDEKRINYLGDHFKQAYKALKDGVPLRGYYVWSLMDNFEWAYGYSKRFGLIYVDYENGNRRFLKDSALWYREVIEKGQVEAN

## OC[C@H]1O[C@@H](O)[C@H](O)[C@@H](O)[C@@H]1O [D-glucose]
  X-ray crystal structure, 1.80 Å, crystal soaked with cellobionolactam: The crystal structure of HoBGLA in complex with glucose, representing the post-hydrolysis state
